Laboratory results: PubChem BioAssay AID1159612
Active and inactive are the calls of the source.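 The calls were made as follows: active = compounds displacing the labeled ligand from RAR alpha with half-maximal potency at 10 µM or stronger; inactive = the rest.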

Target: Retinoic acid receptor alpha (Homo sapiens) (UniProt P10276)
Assay: RARalpha binders by radioligand displacement, dose response, biochemical, [3H]9-cis-retinoic acid (AID 1159612)
Settings: RARalpha radioligand binding, [3H]9-cis-RA displacement

Retinoic acid receptor alpha (Homo sapiens), sequence (P10276 whole entry, looked up): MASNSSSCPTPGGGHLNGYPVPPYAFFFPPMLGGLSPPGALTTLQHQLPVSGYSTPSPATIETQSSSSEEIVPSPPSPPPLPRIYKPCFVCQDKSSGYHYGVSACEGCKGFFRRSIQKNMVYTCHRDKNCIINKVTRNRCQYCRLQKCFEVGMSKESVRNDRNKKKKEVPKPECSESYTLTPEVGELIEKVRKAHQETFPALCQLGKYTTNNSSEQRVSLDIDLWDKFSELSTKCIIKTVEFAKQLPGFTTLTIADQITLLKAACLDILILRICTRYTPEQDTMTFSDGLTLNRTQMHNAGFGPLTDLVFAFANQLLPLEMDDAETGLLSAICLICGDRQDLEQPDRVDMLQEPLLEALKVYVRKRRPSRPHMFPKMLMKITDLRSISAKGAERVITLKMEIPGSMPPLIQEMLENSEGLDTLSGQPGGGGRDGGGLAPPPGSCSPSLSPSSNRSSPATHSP

Question: `CC1=C[C@H](O)CC(C)(C)[C@H]1/C=C/C(C)=C/C=C/C(C)=C/C=C/C=C(C)/C=C/C=C(C)/C=C/C1=C(C)C[C@@H](O)CC1(C)C` was tested. Which IC50 did it give?
Answer: inactive
